# Measurements: patent US20040192686A1, “Benzoazine mono-N-oxides and benzoazine 1,4 dioxides and compositions therefrom for the therapeutic use in cancer treatments” (Auckland Uniservices Limited, priority 2003, published 2004)
# Where a name gives a salt, the structure may show the parent alone.
row,SMILES,melting point
1,"CCc1nc2ccc(OCCN3CCOCC3)cc2[n+]([O-])n1 [Compound 99, 3-Ethyl-7-[2-(4-morpholinyl)ethoxy]-1,2,4-benzotriazine 1-oxide]",99 to 101 °C
2,"CCCCSc1cccc2nc(N)n[n+]([O-])c12 [Compound 3g, 8-(Butylsulfanyl)-1,2,4-benzotriazin-3-amine 1-oxide]",233 to 236 °C
3,"[O-][n+]1nc(NCCN2CCOCC2)nc2ccccc21 [Compound 41, N-[2-(4-Morpholinyl)ethyl]-1,2,4-benzotriazin-3-amine 1-oxide]",170 to 172 °C
4,Cl.[O-][n+]1nc(CCN2CCOCC2)nc2ccccc21,213 to 215 °C
5,"COc1ccc2c(c1)nc(N)n[n+]2[O-] [Compound 3q, 6-Methoxy-1,2,4-benzotriazin-3-amine 1-oxide]",265 to 270 °C
6,CN(C)CCc1nc2ccccc2[n+]([O-])n1,47 to 49 °C
7,"Cc1cccc2nc(NCCN3C(C)CCCC3C)n[n+]([O-])c12 (stereo not drawn) [Compound 164, N-[2-(2,6-Dimethyl-1-piperidinyl)ethyl]-8-methyl-1,2,4-benzotriazin-3-amine 1-Oxide]",169 to 171 °C
8,"Cc1ccc2c(c1)nc(NCCN1CCOCC1)n[n+]2[O-] [Compound 138, 6-Methyl-N-[2-(4-morpholinyl)ethyl]-1,2,4-benzotriazin-3-amine 1-Oxide]",182 to 184 °C
9,"[O-][n+]1nc(NCCN2CCCCC2)nc2cc(Cl)ccc21 [Compound 135, 6-Chloro-N-[2-(1-piperidinyl)ethyl]-1,2,4-benzotriazin-3-amine 1-Oxide]",178 to 181 °C
10,"COCCNc1nc2ccccc2[n+]([O-])c1C#N [Compound 123, 3-[(2-Methoxyethyl)amino]-2-quinoxalinecarbonitrile 1-oxide]",124 to 126 °C
11,"COc1ccc2nc(NCCN(C)C)n[n+]([O-])c2c1 (as salt: hydrochloride) [Compound 92, N^1-(7-Methoxy-1-oxido-1,2,4-benzotriazin-3-yl)-N^2,N^2-dimethyl-1,2-ethanediamine]",231 to 235 °C
12,"COc1ccc2c(c1)nc(NCCN1CCCCC1)n[n+]2[O-] [Compound 85, 6-Methoxy-N-[2-(1-piperidinyl)ethyl]-1,2,4-benzotriazin-3-amine 1-oxide]",133 to 135 °C
13,"CC(C)c1ccc2c(c1)nc(NCCN1CCCCC1)n[n+]2[O-] [Compound 150, 6-Isopropyl-N-[2-(1-piperidinyl)ethyl]-1,2,4-benzotriazin-3-amine 1-Oxide]",124 to 127 °C
14,"Cc1cc2nc(Cl)n[n+]([O-])c2cc1C [Compound 104, 3-Chloro-6,7-dimethyl-1-oxido-1,2,4-benzotriazine]",148 to 149 °C
15,"COc1cc2nc(Cl)n[n+]([O-])c2cc1C [Compound 113, 3-Chloro-6-methoxy-7-methyl-1,2,4-benzotriazine 1-oxide]",180 to 182 °C
16,"CN(C)c1ccc2nc(N)n[n+]([O-])c2c1 [Compound 11, N^7,N^7-Dimethyl-1,2,4-benzotriazine-3,7-diamine 1-oxide]",231 to 233 °C
17,"COc1ccc2c(c1)nc(NCCN1CCOCC1)n[n+]2[O-] [Compound 86, 6-Methoxy-N-[2-(4-morpholinyl)ethyl]-1,2,4-benzotriazin-3-amine 1-oxide]",186 to 188 °C
18,"CC(C)c1ccc2c(c1)nc(NCCN1CCOCC1)n[n+]2[O-] [Compound 149, 6-Isopropyl-N-[2-(4-morpholinyl)ethyl]-1,2,4-benzotriazin-3-amine 1-Oxide]",145 to 147 °C

row,SMILES,melting point
1,"Nc1nc2ccc(OCCN3CCOCC3)cc2[n+]([O-])n1 [Compound 17, 7-[2-(4-Morpholinyl)ethoxy]-1,2,4-benzotriazin-3-amin 1-oxide]",175 to 181 °C
2,"[O-][n+]1nc(NCCN2CCCC2)nc2ccccc21 [Compound 40, N-[2-(1-Pyrrolidinyl)ethyl]-1,2,4-benzotriazin-3-amin 1-oxid]",141 to 143 °C
3,"Cc1cc2nc(NCCN3CCOCC3)n[n+]([O-])c2cc1C [Compound 167, 6,7-Dimethyl-N-[2-(4-morpholinyl)ethyl]-1,2,4-benzotriazi n-3-amine 1-Oxide]",211 to 213 °C
4,"Cc1ccc2c(c1)nc(N)n[n+]2[O-] [Compound 3r, 6-Methyl-1,2,4-benzotriazin-3-amine 1-oxide]",263 °C (dec.)
5,"Nc1nc2ccc(Cl)cc2[n+]([O-])n1 [Compound 3l, 7-Chloro-1,2,4-benzotriazin-3-amine 1-oxide]",309 °C (dec.)
6,"CSc1ccc2nc(N)n[n+]([O-])c2c1 [Compound 3n, 7-(Methylsulfanyl)-1,2,4-benzotriazin-3-amine 1-oxide]",245 to 247 °C
7,"CN(C)CCN(C)c1nc2ccccc2[n+]([O-])n1 (as salt: hydrochloride) [Compound 38, N^1,N^1,N^2-Trimethyl-N^2-(1-oxido-1,2,4-benzotriazin-3-yl)-1,2-ethanediamine]",220 to 223 °C
8,"Cc1cccc2nc(NCCN3CCOCC3)n[n+]([O-])c12 [Compound 163, 8-Methyl-N-[2-(4-morpholinyl)ethyl]-1,2,4-benzotriazin-3-amine 1-Oxide]",168 to 170 °C
9,"Cc1cc(C)c2c(c1)nc(Cl)n[n+]2[O-] [Compound 108, 3-Chloro-6,8-dimethyl-1,2,4-benzotriazine 1-oxide]",120 to 122 °C
10,"COCCOc1ccc2nc(N)n[n+]([O-])c2c1 [Compound 14, 7-(2-Methoxyethoxy)-1,2,4-benzotriazin-3-amine 1-oxide]",201 to 203 °C
11,"CC(C)(C)c1ccc2c(c1)nc(NCCN1CCCCC1)n[n+]2[O-] [Compound 158, 6-tert-Butyl-N-[2-(1-piperidinyl)ethyl]-1,2,4-benzotriazin-3-amine 1-Oxide]",145 to 148 °C
12,CN(C)CCCc1nc2ccccc2[n+]([O-])n1.Cl,228 to 230 °C
13,"COc1ccc(-c2nc3ccccc3[n+]([O-])n2)cc1 [Compound 58, 3-(4-Methoxyphenyl)-1,2,4-benzotriazine 1-oxide]",168 to 170 °C
14,"CCOC(=O)CNc1nc2ccccc2[n+]([O-])n1 [Compound 20, Ethyl [(1-oxido-1,2,4-benzotriazin-3-yl)amino]acetate]",136 to 138 °C
15,"CCN(CC)CCNc1nc2cc(C(C)C)ccc2[n+]([O-])n1 [Compound 148, N^1-(6-Isopropyl-1-oxido-1,2,4-benzotriazin-3-yl)-N^2,N^2-diethyl-1,2-ethanediamine]",60 to 62 °C
16,"N#CCCNc1nc2ccccc2[n+]([O-])n1 [Compound 26, 3-[(1-Oxido-1,2,4-benzotriazin-3-yl)amino]propanenitrile]",191 to 193 °C
17,"CCN(CC)CCNc1nc2cc(Cl)ccc2[n+]([O-])n1 [Compound 134, N^1-(6-Chloro-1-oxido-1,2,4-benzotriazin-3-yl)-N^2,N^2-diethyl-1,2-ethanediamine]",128 to 130 °C
18,"O=C(NCCOCCNc1nc2ccccc2[n+]([O-])n1)c1cccc2cc3ccccc3nc12 [Compound 121, N-(2-{2-[(1-Oxido-1,2,4-benzotriazin-3-yl)amino]ethoxy}ethyl)-4-acridinecarboxamide]",178 to 182 °C
